In publication PMC4579270, “Identification and Characterization of an Irreversible Inhibitor of CDK2” (Chemistry & Biology, 2015) one finds remaining activity data, which are given here for 1 compound.

Like-named read-outs stand apart in the source and are kept apart here.

What is called remaining activity is the signal under treatment as a percentage of the control signal.

What all share (test): Dundee kinase screen re-test (standard format and 4 hour pre-incubation)
Holding throughout (type): biochemical

One assay addresses T1, TSSK1 (Homo sapiens, UniProt Q9BXA7).
T1 sequence (Q9BXA7 1-367): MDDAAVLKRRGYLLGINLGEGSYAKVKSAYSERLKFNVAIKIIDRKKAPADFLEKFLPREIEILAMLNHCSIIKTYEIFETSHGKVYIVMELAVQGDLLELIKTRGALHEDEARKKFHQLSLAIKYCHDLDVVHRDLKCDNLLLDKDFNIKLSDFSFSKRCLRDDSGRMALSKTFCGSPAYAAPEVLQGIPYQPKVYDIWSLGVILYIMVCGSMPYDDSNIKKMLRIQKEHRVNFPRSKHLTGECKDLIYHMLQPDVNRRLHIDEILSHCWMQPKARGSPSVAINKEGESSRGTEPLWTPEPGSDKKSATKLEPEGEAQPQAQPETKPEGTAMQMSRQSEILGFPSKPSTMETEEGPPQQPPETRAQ
The note with it: TSSK1, 0.5µM. The method, then: (§1) Prior to determining its cellular activity, we carried out a screen to assess its selectivity against a panel of 131 protein kinases under conditions that would not distinguish between a reversible or irreversible mode of action. […] These 13 kinases and 29 additional kinases, selected for their known sensitivity to other inhibitors within the purine series, were then tested in a modified screening format in which the assay was repeated following a 4-hr pre-incubation (Table S3B). […] However, conformational flexibility around the active site may promote such an interaction with a residue from another part of the structure ([Martin et al., 2012]).
(§2) Table S3, Related to Figure 4. NCL-0006300 protein kinase selectivity. […]
(§3) Dundee protein kinase screen (Bain et al., 2007). […]
(§4) (B) Selected kinases were re-tested in the Dundee kinase screen against NU6300 at a single concentration of 0.5 µM both in the standard assay format and following a 4 hour pre-incubation in the presence of NU6300. Kinases which have very low activity after the 4 hour incubation so that results might not be wholly reliable are boxed in salmon. Kinases where the activity after a 4 hour pre-incubation is < 50% that in the standard assay format are highlighted in red.

For another assay, the target named is T2, EPH-B3 (Homo sapiens, UniProt P54753).
T2 sequence (P54753 34-998): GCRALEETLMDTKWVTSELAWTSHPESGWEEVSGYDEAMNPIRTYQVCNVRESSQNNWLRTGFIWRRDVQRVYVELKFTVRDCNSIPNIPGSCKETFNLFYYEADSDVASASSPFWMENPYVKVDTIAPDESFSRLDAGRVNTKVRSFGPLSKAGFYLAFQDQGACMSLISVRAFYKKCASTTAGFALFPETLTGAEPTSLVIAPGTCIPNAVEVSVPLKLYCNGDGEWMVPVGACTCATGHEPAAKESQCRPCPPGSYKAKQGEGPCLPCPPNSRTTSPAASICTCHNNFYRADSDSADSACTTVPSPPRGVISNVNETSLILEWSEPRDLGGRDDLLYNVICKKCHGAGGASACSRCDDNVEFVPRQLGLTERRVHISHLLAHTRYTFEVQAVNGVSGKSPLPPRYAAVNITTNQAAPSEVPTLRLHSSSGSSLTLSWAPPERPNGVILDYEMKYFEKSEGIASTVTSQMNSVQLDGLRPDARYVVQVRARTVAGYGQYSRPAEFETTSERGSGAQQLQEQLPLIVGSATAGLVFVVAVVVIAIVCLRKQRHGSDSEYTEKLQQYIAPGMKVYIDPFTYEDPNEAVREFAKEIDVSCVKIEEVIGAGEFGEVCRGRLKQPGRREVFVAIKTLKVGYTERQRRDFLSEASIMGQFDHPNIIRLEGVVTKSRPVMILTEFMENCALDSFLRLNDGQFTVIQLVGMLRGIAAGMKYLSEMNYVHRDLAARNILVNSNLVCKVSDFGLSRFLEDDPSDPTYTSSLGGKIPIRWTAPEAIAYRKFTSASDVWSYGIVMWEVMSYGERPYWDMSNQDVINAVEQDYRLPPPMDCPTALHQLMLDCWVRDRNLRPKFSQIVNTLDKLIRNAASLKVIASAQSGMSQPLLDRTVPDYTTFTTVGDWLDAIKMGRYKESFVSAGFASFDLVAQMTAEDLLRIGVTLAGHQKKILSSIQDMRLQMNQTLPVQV
The note with it: EPH-B3, 0.5µM. The method, then:
as §1, §2, §3, §4

A further assay concerns the target T3, TBK1 (Homo sapiens, UniProt Q9UHD2).
T3 sequence (Q9UHD2 1-729): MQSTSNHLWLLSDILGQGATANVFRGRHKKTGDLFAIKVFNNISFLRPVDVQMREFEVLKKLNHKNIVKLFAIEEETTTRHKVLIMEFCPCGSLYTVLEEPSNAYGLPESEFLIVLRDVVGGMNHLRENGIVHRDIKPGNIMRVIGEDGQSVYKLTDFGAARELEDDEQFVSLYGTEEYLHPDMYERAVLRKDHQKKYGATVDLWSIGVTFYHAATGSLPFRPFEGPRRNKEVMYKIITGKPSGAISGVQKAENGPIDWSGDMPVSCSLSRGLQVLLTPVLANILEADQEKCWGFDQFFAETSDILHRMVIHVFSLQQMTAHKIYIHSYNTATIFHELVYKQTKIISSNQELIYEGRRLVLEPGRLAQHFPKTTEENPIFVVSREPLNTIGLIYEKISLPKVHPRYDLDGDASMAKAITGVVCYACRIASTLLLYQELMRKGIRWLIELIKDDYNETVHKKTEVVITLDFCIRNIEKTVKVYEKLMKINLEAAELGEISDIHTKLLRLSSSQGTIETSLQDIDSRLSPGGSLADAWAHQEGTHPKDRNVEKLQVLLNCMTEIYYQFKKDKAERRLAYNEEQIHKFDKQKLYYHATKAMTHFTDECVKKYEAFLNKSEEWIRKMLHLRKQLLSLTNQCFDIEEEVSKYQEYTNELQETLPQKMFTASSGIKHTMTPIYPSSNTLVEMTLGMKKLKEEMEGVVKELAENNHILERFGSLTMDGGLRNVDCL
The note with it: TBK1, 0.5µM. Here is the method: as §1, §2, §3, §4

In a further assay the target is CDK9-Cyclin T1 (Homo sapiens, UniProt P50750). The conditions noted are these: CDK9/cyclin T1, 0.5µM. The method, then: as §1, §2, §3, §4
Where [1] appears, read: 4hr RT preincubation, read-out: %Remaining activity at 0.5µM NU6300 - 4hr RT preincubation.
Where [2] appears, read: usual format, read-out: %Remaining activity at 0.5µM NU6300 - Usual assay format.

CDK9-Cyclin T1, sequence (P50750 whole entry): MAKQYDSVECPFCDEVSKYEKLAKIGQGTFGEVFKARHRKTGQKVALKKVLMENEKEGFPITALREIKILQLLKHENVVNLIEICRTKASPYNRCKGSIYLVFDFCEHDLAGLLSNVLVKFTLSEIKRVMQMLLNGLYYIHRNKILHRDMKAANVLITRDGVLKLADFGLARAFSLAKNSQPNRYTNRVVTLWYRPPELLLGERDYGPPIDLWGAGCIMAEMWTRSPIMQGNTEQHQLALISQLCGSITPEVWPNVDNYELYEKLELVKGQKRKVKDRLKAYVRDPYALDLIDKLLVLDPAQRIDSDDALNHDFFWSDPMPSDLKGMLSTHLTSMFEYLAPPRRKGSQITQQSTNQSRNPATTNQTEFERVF
CDK9-Cyclin T1, sequence (O60563 whole entry partner): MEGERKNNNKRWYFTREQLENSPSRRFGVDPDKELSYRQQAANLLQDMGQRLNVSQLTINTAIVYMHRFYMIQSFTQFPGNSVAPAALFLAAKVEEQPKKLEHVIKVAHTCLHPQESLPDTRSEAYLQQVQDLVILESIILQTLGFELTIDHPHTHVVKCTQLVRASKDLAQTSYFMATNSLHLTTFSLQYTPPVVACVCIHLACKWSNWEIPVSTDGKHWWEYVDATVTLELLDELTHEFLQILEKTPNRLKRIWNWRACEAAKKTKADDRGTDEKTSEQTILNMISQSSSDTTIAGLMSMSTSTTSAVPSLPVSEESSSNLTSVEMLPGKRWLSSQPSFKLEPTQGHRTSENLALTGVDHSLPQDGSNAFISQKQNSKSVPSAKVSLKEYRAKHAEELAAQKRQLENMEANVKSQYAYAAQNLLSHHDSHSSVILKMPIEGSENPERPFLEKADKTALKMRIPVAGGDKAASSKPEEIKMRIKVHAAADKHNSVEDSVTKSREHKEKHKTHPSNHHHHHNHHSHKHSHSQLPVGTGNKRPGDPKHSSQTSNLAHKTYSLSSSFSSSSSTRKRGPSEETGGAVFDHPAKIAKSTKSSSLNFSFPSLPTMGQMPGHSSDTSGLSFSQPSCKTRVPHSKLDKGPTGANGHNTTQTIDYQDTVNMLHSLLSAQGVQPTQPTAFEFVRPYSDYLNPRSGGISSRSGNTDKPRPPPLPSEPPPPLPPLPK

`C=CS(=O)(=O)c1ccc(Nc2nc(OCC3CCCCC3)c3nc[nH]c3n2)cc1` [NU6300, 6-(cyclohexylmethoxy)-N-(4-(vinylsulfonyl)phenyl)-9H-purin-2-amine]: the remaining activity at 0.5 µM at TSSK1 (setting [1]) came out at 67%; at TSSK1 (setting [2]) it was 53%; at EPH-B3 (setting [1]) it was 17%; at EPH-B3 (setting [2]) it was 12%; at TBK1 (setting [1]), 75%; on TBK1 (setting [2]), 62%. The remaining activity at 0.5 µM on CDK9-Cyclin T1 (setting [1]) was found to be 127%; at CDK9-Cyclin T1 (setting [2]), 89%.
